Test [1] concerns the target human glucagon receptor (GCGR) (Homo sapiens (Human), UniProt P47871). In words: Inhibition of 125I-glucagon binding to membranes from HEK293 cells expressing the human glucagon receptor. In a few lines:
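Filtration binding assay on membranes from HEK293 cells stably expressing full-length human GCGR, 6 μg protein/well, with 0.3 nM ¹²⁵I-glucagon plus compound, 2 h at room temperature. Buffer: 50 mM HEPES pH 7.4, 5 mM MgCl2, 1 mM CaCl2, 0.2% BSA. IC50 by non-linear regression, converted to Ki.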

The target of the next test is human GCGR (Homo sapiens (Human), UniProt P47871). In words: Cellular functional assay, cAMP readout (glucagon-stimulated cAMP in HEK293 cells expressing human GCGR). To be noted: hGluc-1 HEK cells, LANCE TR-FRET, IC50 converted to Ki, average if tested more than once. The test is classed as cell-based. In a few lines: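 HEK293 cells stably transfected with full-length human GCGR were exposed to compound for 30 min before a 5-min challenge with […] (final) glucagon. Readout was TR-FRET (LANCE) cAMP versus standard curve; IC50s fitted by non-linear regression and converted to Ki values.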

Setting [2] is: membranes of hGluc-1 HEK cells, 125I-glucagon 0.3 nM, 2 hours room temperature, IC50 converted to Ki, average if tested more than once.

Our source for the Ki values is US8748624B2, “Picolinamido-propanoic acid derivatives useful as glucagon receptor antagonists” (Janssen Pharmaceutica NV, priority 2011, dated 2014).

pKi: −log10 of the molar value. Read-outs that look alike come from different tables or passages of the source.

Chain of human GCGR (P47871 26-477): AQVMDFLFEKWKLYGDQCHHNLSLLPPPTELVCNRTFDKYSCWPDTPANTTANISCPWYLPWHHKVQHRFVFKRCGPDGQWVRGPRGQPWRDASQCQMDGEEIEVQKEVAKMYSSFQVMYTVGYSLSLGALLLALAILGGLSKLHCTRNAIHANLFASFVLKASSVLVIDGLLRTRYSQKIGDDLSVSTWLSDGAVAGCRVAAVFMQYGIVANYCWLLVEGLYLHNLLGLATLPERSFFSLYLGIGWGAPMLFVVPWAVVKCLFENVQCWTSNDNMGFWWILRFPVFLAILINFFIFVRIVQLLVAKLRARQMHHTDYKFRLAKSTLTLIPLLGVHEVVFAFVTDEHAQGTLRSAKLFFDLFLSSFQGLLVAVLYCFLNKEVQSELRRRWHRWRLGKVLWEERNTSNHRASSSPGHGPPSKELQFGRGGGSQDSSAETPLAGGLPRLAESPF
Chain of human glucagon receptor (GCGR) (P47871 26-477): as above

As usually defined, the pKi is the Ki on a negative log10 scale, so that one unit is a factor of ten. Read a low pKi as a large Ki. Consider `O=C(O)CCNC(=O)c1ccc(-c2cc(Cl)ccc2CNc2ccc(-c3ccc(F)c(F)c3)cc2)cn1` [Compound 136, 3-(5-(5-chloro-2-(((3′,4′-difluoro-[1,1′-biphenyl]-4-yl)amino)methyl)phenyl)picolinamido)propanoic acid], for which the pKi is 7.54 in test [1] (setting [2]) and 6.60 at human GCGR.

Regarding `O=C(O)CCNC(=O)c1ccc(-c2cc(Cl)ccc2CNc2ccc(-c3cc(F)cc(F)c3)cc2)cn1` [Compound 137, 3-(5-(5-chloro-2-(((3′,5′-difluoro-[1,1′-biphenyl]-4-yl)amino)methyl)phenyl)picolinamido)propanoic acid], the pKi in test [1] (setting [2]) was 7.21; on human GCGR, 6.37.

With `O=C(O)CCNC(=O)c1ccc(-c2cc(Cl)ccc2CNc2ccc(-c3ccc(F)cc3Cl)c(Cl)c2)cn1` [Compound 138, 3-(5-(5-chloro-2-(((2,2′-dichloro-4′-fluoro-[1,1′-biphenyl]-4-yl)amino)methyl)phenyl)picolinamido)propanoic acid], the pKi in test [1] was 7.64; at human GCGR, 6.92.

For the molecule `Cc1cc(-c2ccc(NCc3ccc(Cl)cc3-c3ccc(C(=O)NCCC(=O)O)nc3)cc2Cl)ccc1F` [Compound 139, 3-(5-(5-chloro-2-(((2-chloro-4′-fluoro-3′-methyl-[1,1′-biphenyl]-4-yl)amino)methyl)phenyl)picolinamido)propanoic acid], the pKi was 7.54 in test [1] (setting [2]) and 6.92 on human GCGR.

For the molecule `O=C(O)CCNC(=O)c1ccc(-c2cc(Cl)ccc2CNc2ccc(-c3ccc(OC(F)(F)F)cc3)c(Cl)c2)cn1` [Compound 140, 3-(5-(5-chloro-2-(((2-chloro-4′-(trifluoromethoxy)-[1,1′-biphenyl]-4-yl)amino)methyl)phenyl)picolinamido)propanoic acid], the pKi in test [1] (setting [2]) is 7.67; at human GCGR, 7.07.

With `O=C(O)CCNC(=O)c1ccc(-c2cc(Cl)ccc2CNc2ccc(-c3c(F)cccc3Cl)cc2)cn1` [Compound 141, 3-(5-(5-chloro-2-(((2′-chloro-6′-fluoro-[1,1′-biphenyl]-4-yl)amino)methyl)phenyl)picolinamido)propanoic acid], the pKi in test [1] (setting [2]) was 7.51; at human GCGR, 6.86.

Turning to `O=C(O)CCNC(=O)c1ccc(-c2cc(Cl)ccc2CNc2ccc(-c3ccc(F)cc3C(F)(F)F)c(Cl)c2)cn1` [Compound 142, 3-(5-(5-chloro-2-(((2-chloro-4′-fluoro-2′-(trifluoromethyl)-[1,1′-biphenyl]-4-yl)amino)methyl)phenyl)picolinamido)propanoic acid], the pKi was 7.50 in test [1] (setting [2]) and 6.65 at human GCGR.

Take `COc1ccc(-c2ccc(NCc3ccc(Cl)cc3-c3ccc(C(=O)NCCC(=O)O)nc3)cc2)c(Cl)c1` [Compound 143, 3-(5-(5-chloro-2-(((2′-chloro-4′-methoxy-[1,1′-biphenyl]-4-yl)amino)methyl)phenyl)picolinamido)propanoic acid]: the results for the pKi (in test [1] (setting [2]); at human GCGR) were 7.55 and 6.97, respectively.

For the molecule `O=C(O)CCNC(=O)c1ccc(-c2cc(Cl)ccc2CNc2ccc(-c3ccc(F)c(C(F)(F)F)c3)c(Cl)c2)cn1` [Compound 144, 3-(5-(5-chloro-2-(((2-chloro-4′-fluoro-3′-(trifluoromethyl)-[1,1′-biphenyl]-4-yl)amino)methyl)phenyl)picolinamido)propanoic acid], the pKi in test [1] (setting [2]) is 7.91; at human GCGR it was 7.64.

`Cc1ccc(C(=O)Nc2ccc(-c3ccc(Cl)cc3)cc2)c(-c2ccc(C(=O)NCCC(=O)O)nc2)c1` [Compound 145, 3-(5-(2-((4′-chloro-[1,1′-biphenyl]-4-yl)carbamoyl)-5-methylphenyl)picolinamido)propanoic acid]: the pKi in test [1] (setting [2]) was 7.44; on human GCGR, 7.17.

Regarding `Cc1cc(-c2ccc(NCc3ccc(Cl)cc3-c3ccc(C(=O)NCCC(=O)O)nc3)cc2)ccc1F` [Compound 146, 3-(5-(5-chloro-2-(((4′-fluoro-3′-methyl-[1,1′-biphenyl]-4-yl)amino)methyl)phenyl)picolinamido)propanoic acid], the pKi in test [1] (setting [2]) is 7.55; at human GCGR, 6.57.

For `O=C(O)CCNC(=O)c1ccc(-c2cc(Cl)ccc2CNc2ccc(-c3ccc(C(F)(F)F)cc3Cl)cc2)cn1` [Compound 147, 3-(5-(5-chloro-2-(((2′-chloro-4′-(trifluoromethyl)-[1,1′-biphenyl]-4-yl)amino)methyl)phenyl)picolinamido)propanoic acid], the pKi in test [1] (setting [2]) is 7.80; at human GCGR, 7.22.

Turning to `Cc1cc(Cl)ccc1-c1ccc(NCc2ccc(Cl)cc2-c2ccc(C(=O)NCCC(=O)O)nc2)cc1` [Compound 148, 3-(5-(5-chloro-2-(((4′-chloro-2′-methyl-[1,1′-biphenyl]-4-yl)amino)methyl)phenyl)picolinamido)propanoic acid], the pKi is 7.73 in test [1] (setting [2]) and 7.47 at human GCGR.

Consider `O=C(O)CCNC(=O)c1ccc(-c2cc(Cl)ccc2CNc2ccc(-c3ccc(F)cc3C(F)(F)F)cc2)cn1` [Compound 149, 3-(5-(5-chloro-2-(((4′-fluoro-2′-(trifluoromethyl)-[1,1′-biphenyl]-4-yl)amino)methyl)phenyl)picolinamido)propanoic acid], for which the results for the pKi (in test [1] (setting [2]); on human GCGR) were 7.40 and 6.37, respectively.

As to `O=C(O)CCNC(=O)c1ccc(-c2cc(Cl)ccc2CNc2ccc(-c3ccc(F)c(Cl)c3)cc2)cn1` [Compound 150, 3-(5-(5-chloro-2-(((3′-chloro-4′-fluoro-[1,1′-biphenyl]-4-yl)amino)methyl)phenyl)picolinamido)propanoic acid], the pKi in test [1] (setting [2]) was 7.56; on human GCGR, 7.13.

On to `Cc1cc(F)ccc1-c1ccc(NCc2ccc(Cl)cc2-c2ccc(C(=O)NCCC(=O)O)nc2)cc1` [Compound 151, 3-(5-(5-chloro-2-(((4′-fluoro-2′-methyl-[1,1′-biphenyl]-4-yl)amino)methyl)phenyl)picolinamido)propanoic acid], for which the figures for the pKi (in test [1] (setting [2]); at human GCGR) were 7.78 and 6.95, respectively.

Consider `O=C(O)CCNC(=O)c1ccc(-c2cc(Cl)ccc2CNc2ccc(-c3ccc(F)cc3Cl)cc2)cn1` [Compound 152, 3-(5-(5-chloro-2-(((2′-chloro-4′-fluoro-[1,1′-biphenyl]-4-yl)amino)methyl)phenyl)picolinamido)propanoic acid], for which the negative-log Ki (pKi) in test [1] (setting [2]) was 7.50; on human GCGR it was 6.85.

As for `Cc1cc(Cl)ccc1-c1ccc(NC(=O)c2ccc(Cl)cc2-c2ccc(C(=O)NCCC(=O)O)nc2)cc1` [Compound 153, 3-(5-(5-chloro-2-((4′-chloro-2′-methyl-[1,1′-biphenyl]-4-yl)carbamoyl)phenyl)picolinamido)propanoic acid], the pKi is 7.48 in test [1] (setting [2]) and 7.55 at human GCGR.

In the case of `CC(Nc1ccc(-c2ccc(F)cc2)cc1)c1ccc(Cl)cc1-c1ccc(C(=O)NCCC(=O)O)nc1` (stereo not shown) [Compound 155, 3-(5-(5-chloro-2-(1-((4′-fluoro-[1,1′-biphenyl]-4-yl)amino)ethyl)phenyl)picolinamido)propanoic acid], the pKi in test [1] (setting [2]) was 6.63; on human GCGR, 5.66.

For `CC(=O)c1ccc(-c2ccc(NCc3ccc(Cl)cc3-c3ccc(C(=O)NCCC(=O)O)nc3)cc2)cc1` [Compound 156, 3-(5-(2-(((4′-acetyl-[1,1′-biphenyl]-4-yl)amino)methyl)-5-chlorophenyl)picolinamido)propanoic acid], the pKi in test [1] (setting [2]) is 7.42; at human GCGR, 6.79.
